Experiments:
[1] = test system: Calu-6 non-small cell lung cancer cell line of a mutation RONΔ155 type; assay: MTS assay, cell growth inhibitory ability, Calu-6; assay type: cell-based; settings: Homo sapiens; Calu-6, RON mutation Δ155, 72 hours
Protocol: (§1) In order to compare and confirm the cell growth inhibitory ability of Examples 1 (WM-S1-030) to 5, positive control 1 (BMS-777607) and positive control 2 (AMG-510) in four non-small cell lung cancer cell lines of a mutation RONΔ155 type (Calu-6, A549, NCI-H358, NCI-H1944), MTS assay was carried out.
(§2) For MTS assay, 1,000 cells of each non-small cell lung cancer cell line per well were seeded in a 96-well-plate, and 24 hours later, treated with the compounds of Examples 1 to 5, positive control 1 and positive control 2 at various concentrations ([…]) in 100 μL of 10% FBS-RPMI medium (Welgene) per each well. Thereafter, the cells were cultured for 72 hours, and then 20 μL of MTS solution (Promega) was added and cultured for 2 hours, and then absorbance was measured at 490 nm. The cytotoxicity was analyzed by deriving the IC50 for the compounds of Examples 1 to 5, positive control 1 and positive control 2 using GraphPad Prism™ 5.

[2] = test system: A549 non-small cell lung cancer cell line of a mutation RONΔ155 type; assay: MTS assay, cell growth inhibitory ability, A549; assay type: cell-based; settings: Homo sapiens; A549, RON mutation Δ155, 72 hours
Protocol: as §1, §2

[3] = test system: NCI-H460 (mRONΔ165) non-small cell lung cancer cell line transplanted mouse model; assay: Tumor growth inhibition in NCI-H460 transplanted animal model; assay type: in vivo; settings: NCI-H460 xenograft, 50 mg/kg, once a day for 2 weeks
Protocol: It was confirmed whether tumor growth was inhibited by administering Example 1 (WM-S1-030) at a dose of 50 mpk to a mouse model transplanted with NCI-H460, which is a non-small cell lung cancer cell line of a mutation RONΔ165 type. Specifically, 5-week-old female BALB/c-nude mice were purchased and acclimatized for 1 week. Thereafter, NCI-H460 (2×10^6 cells/mouse), a non-small cell lung cancer cell line of a mutation RONΔ165 type, was diluted in PBS and Matrigel, and 200 μL was injected subcutaneously into the right dorsal side of the mouse. When the size of the tumor reached about 100 mm^3, the negative control (excipient) and Example 1 were orally administered. In this case, positive control 1 (BMS-777607) was administered at a dose of 50 mpk. The drug was administered once a day for 2 weeks, and the tumor size and body weight were measured twice a week. After the drug administration was completed, the mice were euthanized, the tumor was extracted, and the weight was measured.

[4] = test system: A549 (mRONΔ155) non-small cell lung cancer cell line transplanted mouse model; assay: Tumor growth inhibition in A549 transplanted animal model; assay type: in vivo; settings: A549 xenograft, 50 mg/kg, orally once a day for 3 weeks
Protocol: (§3) It was confirmed whether tumor growth was inhibited by administering Example 1 (WM-S1-030) at a dose of 50 mpk to a mouse model transplanted with A549, which is a non-small cell lung cancer cell line of a mutation RONΔ155 type. Specifically, 5-week-old female BALB/c-nude mice were purchased and acclimatized for 1 week. Thereafter, A549 (5×10^6 cells/mouse), a non-small cell lung cancer cell line of a mutation RONΔ155 type, was diluted in PBS (phosphate buffered saline), and 100 μL was injected subcutaneously into the right dorsal side of the mouse. When the size of the tumor reached about 100 mm^3, the negative control (excipient) and Example 1 were orally administered. The drug was administered once a day for 3 weeks, and the tumor size and body weight were measured twice a week. After the drug administration was completed, the mice were euthanized, the tumor was extracted, and the weight was measured.

[5] = test system: NCI-H1944 non-small cell lung cancer cell line of a mutation RONΔ155 type; assay: MTS assay, cell growth inhibitory ability, NCI-H1944; assay type: cell-based; settings: Homo sapiens; NCI-H1944, RON mutation Δ155, 72 hours
Protocol: as §1, §2

[6] = test system: NCI-H358 (mRONΔ155) non-small cell lung cancer cell line transplanted mouse model; assay: Tumor growth inhibition in NCI-H358 transplanted animal model; assay type: in vivo; settings: NCI-H358 xenograft, orally once a day for 38 days
Protocol: as §3, with “of 3 mpk, 10 mpk and 30” for “of 50”, “with NCI-H358,” for “with A549,”, “Thereafter, NCI-H358” for “Thereafter, A549”, “PBS” for “PBS (phosphate buffered saline),”, “and Matrigel, and 200” for “and 100”, “for 38 days,” for “for 3 weeks,”

[7] = test system: NCI-H358 non-small cell lung cancer cell line of a mutation RONΔ155 type; assay: MTS assay, cell growth inhibitory ability, NCI-H358; assay type: cell-based; settings: Homo sapiens; NCI-H358, RON mutation Δ155, 72 hours
Protocol: as §1, §2

[8] = test system: pTyr-mRON, cleaved caspase 3, cyclin D1 in NCI-H460 (mRONΔ165) tumor; assay: Protein expression change by immunochemical staining of tumor tissue, NCI-H460 transplanted animal model; assay type: in vivo, mouse; settings: 30 mpk, 50 mpk, FIG. 6
Protocol: Example 1 (WM-S1-030) was administered at each concentration (30 mpk, 50 mpk) and positive control 1 was administered at a dose of 50 mpk to a mouse model transplanted with NCI-H460, which is a non-small cell lung cancer cell line of a mutation RONΔ165 type, and then the tumor was extracted, and the expression changes of the proteins were analyzed by immunochemical staining.
(§4) Specifically, paraffin slides were prepared using tissues isolated from the sacrificed mice. The tissue sections were deparaffinized and rehydrated, immersed in the target recovery buffer 1×(ScyTek Laboratories, Cat #CBB999) and heated for 15 minutes to perform an antigen recovery process. After the reaction, the tissue sections were washed in Tris buffered saline-0.05% Tween 20 (TBS-T)(T&I, BTT-9310) for 5 minutes, and then the reaction was performed with a non-specific antibody response blocking reagent (vector, SP-5035) for 1 hour.
(§5) The tissue sections were cultured at 4° C. overnight with mRON (Abcam, ab52927, 1:50), pTyr-mRON (Mybioscience, MBS462024, 1:100), cleaved caspase 3 (Asp175)(R&D Systems, MAB835, 1:50), cyclin D1 (cyclin D1 (SP4), #Z2027RS, 1:100) and then washed with TBS-T for 5 minutes, and then endogenous peroxidase activity was blocked using a peroxidase blocking reagent (Cellmarque, 925B-05). Thereafter, the tissue sections were washed with TBS-T for 5 minutes and then incubated with a rabbit secondary antibody (vector, PK-6101) at room temperature for 1 hour. The tissue sections were washed with TBS-T for 5 minutes and then colored with diaminobenzidine (cat #SK-4100). In order to stain the nuclei of the tissues, they were stained with hematoxylin (ScyTek Laboratories, HMM999) for 1 minute, dehydrated, and then encapsulated.

[9] = test system: pTyr-mRON, cleaved caspase 3, cyclin D1 in NCI-H358 (mRONΔ155) tumor; assay: Protein expression change by immunochemical staining of tumor tissue, NCI-H358 transplanted animal model; assay type: in vivo, mouse; settings: 3 mpk, 10 mpk, 30 mpk, FIG. 4
Protocol: Example 1 (WM-S1-030) was administered at each concentration (3 mpk, 10 mpk, 30 mpk) to a mouse model transplanted with NCI-H358, which is a non-small cell lung cancer cell line of a mutation RONΔ155 type, and then the tumor was extracted, and the expression changes of the proteins were analyzed by immunochemical staining.
as §4
as §5, with “MAB835, 1:50), and cyclin D1” for “MAB835, 1:50), cyclin D1”

For `CCOc1ccn(-c2ccc(F)cc2)c(=O)c1C(=O)Nc1ccc(Oc2ccnc3cc(-c4ccc(CN5CCOCC5)cn4)sc23)c(F)c1.Cl` [Example 1, 4-ethoxy-N-[3-fluoro-4-({2-[5-(morpholinomethyl)pyridin-2-yl]thieno[3,2-b]pyridin-7-yl}oxy)phenyl]-1-(4-fluorophenyl)-2-oxo-1,2-dihydropyridine-3-carboxamide hydrochloride], the IC50 [1] was 0.72 µM, the IC50 [2] was 2.02 µM and the “Tumor growth inhibition rate (TGI, %)” value [3] was 69.7 ± 5.4%. The “Tumor growth inhibition rate (TGI, %)” value [4] was 58.9 ± 3.8%, the IC50 [5] was 1.62 µM and the “Tumor growth inhibition rate (TGI, %)” value ([6]; 3 mg/kg) was 12.3 ± 13.8%. For the same compound, the “Tumor growth inhibition rate (TGI, %)” value ([6]; 10 mg/kg) was 64.5 ± 6.2%, the “Tumor growth inhibition rate (TGI, %)” value ([6]; 30 mg/kg) was 91.0 ± 2.3% and the IC50 [7] was 1.27 µM. The “expression of cleaved caspase 3” value [8] was “induced”, the “expression of cyclin D1, a PD marker” value [8] was “decreased” and the “expression of pTyr-mRON” value [8] was “decreased”. The “expression of cleaved caspase 3” value [9] was “induced”, the “expression of cyclin D1, a PD marker” value [9] was “decreased” and the “expression of pTyr-mRON” value [9] was “decreased”.

Reference: US20230241073A1, “PHARMACEUTICAL COMPOSITION FOR PREVENTING OR TREATING NON-SMALL CELL LUNG CANCER ASSOCIATED WITH RON MUTANTATION, AND METHOD USING SAME” (WELLMARKER BIO CO., LTD., priority 2020, published 2023)
